Source: US20200054646A1, “USE OF PHENOTHIAZINE DERIVATIVE IN THE TREATMENT OF INFECTIOUS PURPURA OR PURPURA FULMINANS” (priority 2016, published 2020)

What was measured:
[1] = system: Nm2C4.3 microcolonies on HBMEC; assay: Dispersion of meningococcal microcolonies at the surface of infected human endothelial cells; format: cell-based, Neisseria meningitidis
Procedure: Human […] microvascular endothelial cells (HBMEC) were infected with Nm2C4.3 for 1 h 30, treated with Trifluoperazine (10-40 μM) for 30 minutes, before fixation and immunofluorescence analysis using anti-Nm2C4.3 antibody and Alexa Fluor 633 Phalloidin. (A) Representative fluorescence microscopy showing bacterial colony (white dots) formed at the surface of the endothelial cells. (B) Quantification of the bacterial colonization was performed using Image J software.
HBMEC, a human endothelial cell line isolated from bone marrow capillaries (Schweitzer et al., 1997) were grown in Dulbecco's Modified Eagle Medium (DMEM) 4.5 g/L-Glutamax (ThermoFischer) 10% FBS. Cells were grown on Thermanox coverslips coated with gelatin 2% (BD Difco #214340) for 2 days to reach confluency. Cells were then infected with a suspension of Nm2C4.3 (˜10^7 CFU/ml) in DMEM/FBS during 30 minutes to allow bacterial adhesion. Cells were then washed three times with medium to remove non-adherent bacteria and infection was pursued for 1 h 30: adherent bacteria grew at the endothelial cell surface and formed micro-colonies. Trifluoperazine was then added to obtain final concentrations of 10, 20, 30 and 40 μM. After incubation for 30 minutes, cells were washed and fixed in 4% Paraformaldehyde for 10 min, washed three times with PBS, and permeabilized with 0.1% Triton X-100 in PBS for 10 min. Cells were blocked for 30 min with 3% BSA in PBS and were incubated for 2 h with the primary antibodies (Rabbit polyclonal anti-Nm2C4.3 strain, kindly provided by Dr X. Nassif, INEM, Paris). After three washes with PBS, cells were incubated for 1 h with […] anti-rabbit IgG (Jackson ImmunoResearch Laboratories), together with Alexa Fluor 633 Phalloidin (Thermofischer) and DAPI (0.5 mg ml-1, Sigma Aldrich) to stain Actin and nuclei, respectively. Labelled preparations were mounted in Glycergel media (DAKO) and image acquisitions were performed with a DM16000 microscope (Leica, X40). Quantification was done with ImageJ software (NIH). Results are presented as a vascular colonisation index corresponding to the area occupied by the fluorescently labelled bacteria per fields in relation to the area occupied by the fluorescently labelled human endothelial cells (Actin staining). Statistical analysis were performed with Student t test.

[2] = system: HDMEC infected with Nm2C4.3; assay: Cytoskeleton remodelling and endothelial cell junction integrity of infected HDMEC (Ezrin, Actin, VE-cadherin immunostaining); format: cell-based, human
Procedure: (A) Experimental procedure: HDMEC were infected for 2 h with Nm2C4.3, treated for 1 h with gentamicin (150 μg/ml) and then 15 min with Trifluoperazine (50 μM) (or solvent alone as a control) and left in medium for 1 h before fixation. (B) Upper panels: Representative fluorescence microscopy showing the effect on the endothelial cell cytoskeleton remodelling analysed by immunostaining of Ezrin and Actin. Lower panels: Effect on the endothelial cell junction integrity was analysed by immunostaining of Actin and VE-cadherin. (C) Quantification of the bacterial colonization (upper panel) Ezrin recruitment and cortical actin polymerization at sites of bacterial adhesion (lower panel) was performed using Image J software.
HDMECs were grown in their specific culture medium (Promocell #C-12210) and confluent monolayers were infected with 2C4.3. Briefly, bacteria were precultured in prewarmed cell culture medium for 1 h 30 min at 37° C. 5% CO2. The OD600 was adjusted to 0.1 and HDMECs were then overlaid with bacteria for 30 min (MOI of 100). Unbound bacteria were removed by three washes in cell culture media and infection was allowed to proceed for 1 h at 37° C. 5% CO2. Gentamicin was added at 150 μg/ml for 1 h, then after three washes in cell culture media, Trifluoperazine was applied where mentioned at 50 μM for 20 min. After three washes in cell culture media, cells were allowed to recover for 1 h in cell culture media. At the indicated time, cells were fixed with 4% Paraformaldehyde for 10 min. Immunolabelling was then performed as above described in example 4, using DAPI, Alexa Fluor 633 Phalloidin, Polyclonal antisera raised against Ezrin, obtained from Pr P. Mangeat (CRBM, Montpellier, France) and anti-human VE-Cadherin (eBioscience #BMS158). When indicated, HBMECs were grown on Thermanox coverslips coated with gelatin 2% for 2 days to reach confluency. Cells were then infected as above described in the presence or in the absence of 5 μM Trifluoperazine for 2 h. Cells were washed and fixed in 4% paraformaldehyde and immunolabelling was performed with a polyclonal antisera raised anti-Nm2C4.3 strain, anti-human PECAM-1 mouse monoclonal, clone HEC7 (ABCAM ab119339) or rabbit polyclonal 177 raised against PECAM-1, obtained from WA Muller (Northwestern University, Chicago, Ill., US), anti-[…] catenin (05-482, UBI), polyclonal antisera raised against Ezrin, Alexa Fluor 633 Phalloidin. Secondary antibodies were from Jackson ImmunoResearch Laboratories. Image acquisitions were performed on a Leica DM16000 with Yokogawa CSU-X1M1 system and CoolSnap HQ2 (Photometrics). Quantifications were done using ImageJ software (NIH).

[3] = system: N. meningitidis Nm2C4.3 strain; assay: Bactericidal activity on N. meningitidis in liquid culture (colony forming unit count); format: cell-based, Neisseria meningitidis; settings: for viable count of the culture that contained 10^7 CFU/ml: 15 min treatment
Procedure: N. meningitidis Nm2C4.3 strain grown in liquid culture at 10^7 CFU/ml were treated with increasing concentrations of Trifluoperazine (10 to 50 μM) or Gentamicin (150 μg/ml) for 15 minutes (A) Bactericidal activity was determined by the count of colony forming units on GCB agar plates 24 h after treatment. (B) Images of the non-treated bacteria or bacteria treated with 30 μM TFP grown for 24 h on GCB agar plates.
Nm2C4.3, a piliated capsulated Opa^−Opc^− variant of the serogroup C meningococcal clinical isolate 8013, was cultured in Dulbecco's Modified Eagle Medium (DMEM) 4.5 g/L-Glutamax media 0,1% BSA during two hours at 37° C. 5% C02. A bacterial suspension at optical density (OD) 0.1 was then distributed in 24-well plate (1 ml/well). After 1 hour of incubation, Trifluoperazine (Sigma #T8516, stock solution in PBS) was added to obtain final concentrations of 10, 20, 30, 40, and 50 μM. Gentamicin (150 μg/ml in DMEM) and PBS alone were used as controls. After 15 min treatment, serial dilutions were performed in physiological water and 100 μl of each dilution were plated on Petri dishes containing GCB solid media (BD, Difco GC media) containing supplements, incubated overnight and the colony forming units were counted.

[4] = Gentamicin 150 μg/ml for 1 h alone
[5] = Trifluoperazine 50 μM in combination with gentamicin 150 μg/ml

## CN[C@@H]1[C@@H](O)C(O[C@@H]2[C@@H](O)[C@H](O[C@H]3O[C@H]([C@@H](C)NC)CC[C@H]3N)[C@@H](N)C[C@H]2N)OC[C@]1(C)O (stereo partly drawn) [Gentamicin, (3R,4R,5R)-2-{[(1S,2S,3R,4S,6R)-4,6-diamino-3-{[(2R,3R,6S)-3-amino-6-[(1R)-1-(methylamino)ethyl]oxan-2-yl]oxy}-2-hydroxycyclohexyl]oxy}-5-methyl-4-(methylamino)oxane-3,5-diol]
[1]; Gentamicin 150 μg/ml
  dispersion of microcolonies at the endothelial cell surface: poorly induced the dispersion
[2]; [4]
  Ezrin recruitment, cortical actin polymerization, VE-cadherin distribution under residual colonies: still induced Ezrin recruitment
  number of colonies present at the cell surface: reduced the number of colonies
[3]; Gentamicin 150 μg/ml, 15 min
  bactericidal effect (in words): killed all bacteria

## CN1CCN(CCCN2c3ccccc3Sc3ccc(C(F)(F)F)cc32)CC1 [Trifluoperazine]
[1]; 30 min, HBMEC and primary HDMEC
  concentration range of dose-dependent microcolony dispersion: 10 to 40 µM
[1]; treatment for 30 min, HBMEC (also HDMEC)
  dispersion of compact microcolonies already established at the endothelial cell surface: induced their dispersion
[2]; [5]
  Ezrin recruitment under residual bacteria: Few Ezrin recruitment
  dispersion of bacterial colonies at the endothelial cell surface: induced the dispersion of most of the bacterial colonies
  endothelial cell junction integrity (VE-cadherin staining, gaps between cells): preserved endothelial cell junction integrity
[3]; Trifluoperazine 50 μM
  viable count of the culture that contained 10^7 CFU/ml: 10^3 CFU/ml
[3]; Trifluoperazine 10 to 30 μM
  viable count of the culture that contained 10^7 CFU/ml: 10^6 CFU/ml
